Experimental data as given in PubChem BioAssay (NCI).
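Following 48 hours of exposure in 96-well plates, responses at five concentrations were used to interpolate endpoints linearly. Abbreviation: GI50, concentration required for 50% inhibition of growth. TGI is the concentration that stops growth completely.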

Assays:
Assay in all cases: inhibition of tumour cell growth, NCI panel, 48 h
[1] = test system: NCI-H460 lung
[2] = test system: CAKI-1 renal
[3] = test system: SN12C renal
[4] = test system: HOP-62 NSCLC
[5] = test system: HL-60(TB) leukemia
[6] = test system: MDA-MB-231 breast
[7] = test system: SF-295 CNS
[8] = test system: SNB-75 CNS
[9] = test system: T-47D breast
[10] = test system: SF-268 CNS
[11] = test system: OVCAR-3 ovarian
[12] = test system: SK-OV-3 ovarian
[13] = test system: SW-620 colon
[14] = test system: SK-MEL-5 melanoma
[15] = test system: PC-3 prostate
[16] = test system: HS 578T breast
[17] = test system: KM12 colon
[18] = test system: NCI-H226 lung
[19] = test system: HCT-15 colon
[20] = test system: NCI-H23 lung
[21] = test system: UACC-257 melanoma
[22] = test system: SK-MEL-28 melanoma
[23] = test system: COLO 205 colon
[24] = test system: SK-MEL-2 melanoma
[25] = test system: ACHN renal
[26] = test system: RPMI-8226 leukemia
[27] = test system: BT-549 breast
[28] = test system: M14 melanoma
[29] = test system: SF-539 CNS
[30] = test system: NCI-H522 lung
[31] = test system: MDA-MB-435
[32] = test system: UO-31 renal
[33] = test system: A498 renal
[34] = test system: DU-145 prostate
[35] = test system: EKVX NSCLC
[36] = test system: MALME-3M melanoma
[37] = test system: HCC-2998 colon
[38] = test system: UACC-62 melanoma
[39] = test system: TK-10 renal

N=C(N)c1ccc(-c2ccc(-c3ccc4ccccc4c3)s2)s1 showed a GI50 [1] of 1.95 µM, a TGI [1] of 3.7 µM and a GI50 [2] of 3.11 µM. The TGI [2] was 11.6 µM, the GI50 [3] was 1.87 µM and the TGI [3] was 3.74 µM. The GI50 [4] was 2.08 µM, the TGI [4] was 5.24 µM and the GI50 [5] was 1.81 µM. It also gave a TGI [5] of 5.11 µM, a GI50 [6] of 1.85 µM and a TGI [6] of 3.73 µM. For the same molecule, the GI50 [7] was 2.27 µM, the TGI [7] was 5.99 µM and the GI50 [8] was 1.93 µM. For the same molecule, the TGI [8] was 5.3 µM, the GI50 [9] was 1.95 µM and the TGI [9] was 4.52 µM. The GI50 [10] was 2.25 µM, the TGI [10] was 5.5 µM and the GI50 [11] was 1.89 µM. The TGI [11] was 3.7 µM, the GI50 [12] was 20.2 µM and the TGI [12] was 42.3 µM. The GI50 [13] was 1.91 µM, the TGI [13] was 3.52 µM and the GI50 [14] was 14.7 µM. The TGI [14] was 28 µM, the GI50 [15] was 2.19 µM and the TGI [15] was 4.87 µM. For the same molecule, the GI50 [16] was 2.07 µM, the TGI [16] was 4.71 µM and the GI50 [17] was 1.92 µM. It also gave a TGI [17] of 4.08 µM, a GI50 [18] of 33.6 µM and a TGI [18] of 79.2 µM. It also gave a GI50 [19] of 1.69 µM, a TGI [19] of 3.29 µM and a GI50 [20] of 2.96 µM. The TGI [20] was 11.1 µM, the GI50 [21] was 16.1 µM and the TGI [21] was 31.2 µM. For the same molecule, the GI50 [22] was 2.25 µM, the TGI [22] was 6.02 µM and the GI50 [23] was 1.63 µM. For the same molecule, the TGI [23] was 3.17 µM, the GI50 [24] was 2.52 µM and the TGI [24] was 5.7 µM. It also gave a GI50 [25] of 2.53 µM, a TGI [25] of 6.66 µM and a GI50 [26] of 2.3 µM. The TGI [26] was 5.02 µM, the GI50 [27] was 17.6 µM and the TGI [27] was 46.8 µM. It also gave a GI50 [28] of 2.45 µM, a TGI [28] of 5.72 µM and a GI50 [29] of 1.97 µM. For the same molecule, the TGI [29] was 4.57 µM, the GI50 [30] was 1.96 µM and the TGI [30] was 4.77 µM. It also gave a GI50 [31] of 1.91 µM, a TGI [31] of 4.08 µM and a GI50 [32] of 1.97 µM. The TGI [32] was 4.49 µM, the GI50 [33] was 1.7 µM and the TGI [33] was 10.5 µM. For the same molecule, the GI50 [34] was 1.83 µM, the TGI [34] was 3.44 µM and the GI50 [35] was 2.46 µM. The TGI [35] was 7.44 µM, the GI50 [36] was 3.1 µM and the TGI [36] was 9.36 µM. It also gave a GI50 [37] of 2.02 µM, a TGI [37] of 4.48 µM and a GI50 [38] of 2.1 µM. The TGI [38] was 4.37 µM, the GI50 [39] was 2.23 µM and the TGI [39] was 4.77 µM.
